Laboratory results from BindingDB's records for patent US8748618 (University of Virginia Patent Foundation, 2014).

These compounds were tested against T1, Core-binding factor subunit beta (Homo sapiens, UniProt Q13951) (assay: FRET Assay).
T1 sequence (Q13951 whole entry): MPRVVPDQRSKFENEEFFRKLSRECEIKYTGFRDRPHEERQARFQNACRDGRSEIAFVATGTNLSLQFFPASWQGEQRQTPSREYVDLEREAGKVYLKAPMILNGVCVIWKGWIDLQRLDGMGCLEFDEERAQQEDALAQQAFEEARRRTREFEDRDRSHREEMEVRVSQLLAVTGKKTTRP
Excerpt: We have developed effective assays to monitor the inhibition of CBFβ-SMMHC binding to the Runt domain (as well as for CBFβ binding to the Runt domain). […] The ratio of the emission intensities at 525 nm and 474 nm, measured after excitation at 433 nm, was used as the readout in this assay.

Point of comparison: `c1ccc(-c2nc3ccc(N4CCOCC4)cc3[nH]2)nc1` [US8748618, AI-10-3], IC50 1 µM. Against it:
- CCOc1cccc2[nH]c(-c3ccccn3)nc12 [US8748618, AI-4-42] — 4.2-fold higher, 4.2 µM
- Fc1cc2[nH]c(-c3ccccn3)nc2c(F)c1F [US8748618, AI-4-43] — within 1.5-fold, 1.4 µM
- Cc1cccc2[nH]c(-c3ccccn3)nc12 [US8748618, AI-4-46] — 5.3-fold higher, 5.3 µM
- FC(F)(F)c1cc(Cl)c2[nH]c(-c3ccccn3)nc2c1 [US8748618, AI-4-48] — within 1.5-fold, 0.76 µM
- Clc1cc(Cl)c2nc(-c3ccccn3)[nH]c2c1 [US8748618, AI-4-49] — within 1.5-fold, 0.7 µM
- COc1cccc2[nH]c(-c3ccccn3)nc12 [US8748618, AI-4-52] — 5.5-fold higher, 5.5 µM
- CC(C)Oc1ccc2[nH]c(-c3ccccn3)nc2c1 [US8748618, AI-4-70 (or) LD-2-21] — within 1.5-fold, 1.4 µM
- CS(=O)(=O)c1ccc2nc(-c3ccccn3)[nH]c2c1 [US8748618, AI-10-37] — 3.3-fold higher, 3.3 µM
- FC(F)(F)Oc1ccc2[nH]c(-c3ccccn3)nc2c1 [US8748618, AI-10-47] — the same, 1 µM
- Oc1ccc2nc(-c3ccccn3)[nH]c2c1 [US8748618, AI-10-61] — 2.5-fold higher, 2.5 µM
- Fc1cccnc1-c1nc2ccc(OC(F)(F)F)cc2[nH]1 [US8748618, AI-10-65] — 22-fold higher, 22 µM
- COCCOc1ccc(-c2nc3ccc(OC(F)(F)F)cc3[nH]2)nc1 [US8748618, AI-10-87] — 2.3-fold higher, 2.3 µM
- c1ccc(-c2nc3cc(-n4ccnc4)ccc3[nH]2)nc1 [US8748618, AI-10-88] — 3.4-fold higher, 3.4 µM
- Cc1ccc2[nH]c(-c3ccccn3)nc2c1C [US8748618, LD-1-23] — 4.3-fold higher, 4.3 µM
- CCOc1ccc2[nH]c(-c3ccccn3)nc2c1 [US8748618, LD-1-29 (or) AI-10-54] — 1.5-fold higher, 1.5 µM
- Fc1ccc2[nH]c(-c3ccccn3)nc2c1 [US8748618, LD-1-31] — 2.5-fold higher, 2.5 µM
- Fc1cc2nc(-c3ccccn3)[nH]c2cc1F [US8748618, LD-1-33] — 2.5-fold higher, 2.5 µM
- Cc1cc2nc(-c3ccccn3)[nH]c2cc1C [US8748618, LD-1-37] — 2-fold higher, 2 µM
- Cc1ccc2[nH]c(-c3ccccn3)nc2c1 [US8748618, LD-2-11] — 2.9-fold higher, 2.9 µM
- FC(F)(F)c1ccc2[nH]c(-c3ccccn3)nc2c1 [US8748618, LD-2-23] — within 1.5-fold, 1.1 µM
- Clc1ccc2nc(-c3ccccn3)[nH]c2c1 [US8748618, LD-2-79] — 2.3-fold higher, 2.3 µM
